The test system of assay [1] is gastric mucosa lesions induced by absolute ethanol. Put plainly: Gastroprotective activity, test with absolute ethanol (gastric mucosa erosions). Conditions: for Relative activity related to the inhibition of the free acid: ED50 of gastric acid inhibition (Shay) related to ED50 of inhibition of gastric erosion; for ED50: po; for gastroprotective activity (in words): test with absolute ethanol. Format: in vivo, rat. As to the method: (§1) Rats of both sexes weighing 200 to 250 g, each previously starved for 24 hours, were used in this experiment. The lesions of gastric mucosa were induced by the oral administration of absolute ethanol in a dose of 1 ml/animal. After one hour following the administration, the animals were killed by an overdose of ether, the stomach was excised and the alterations of gastric mucosa were examined. The lengths of the erosions were measured and summarized (expressed in mm) for each stomach to obtain the erosion index by calculating the average value of the group. The inhibition was calculated in percentage by comparing the value of the group treated with ethanol to that of the control group treated only with the vehicle. Various doses of the compounds to be tested were administered, perorally, in a volume of 5 ml/kg using a pretreatment time of 60 minutes. Eight rats were used for each dose. /A. Robert, Gastroenterology 77, 761-767 (1979)/.
^x Relative activity = ED50 value of the gastric acid inhibition
related to the ED50 value of the inhibition of the gastric erosion.

For assay [2], the system named is gastric erosions induced by ethanol containing hydrochloric acid. Put plainly: Test with ethanol containing hydrochloric acid (gastric erosions). Conditions: for Inhibition of the erosion index, relative activity: ED50 of cetraxate divided by ED50 of compound tested; for ED50: po, rat, p.o., HCl/absolute ethanol 1 to 50; for Inhibition of the erosion frequency, relative activity: related to cetraxate. The class given is in vivo, rat. As to the method:
as §1
The principle of the method consists in that, simultaneously with the administration of absolute ethanol, hydrochloric acid is introduced to the stomach. Thus, the influence on systemic gastric acid inhibition action can be eliminated by the presence of the exogenous acid.
The reagent used in this test was a mixture of concentrated aqueous hydrochloric acid and absolute ethanol in a mass ratio of 1 to 50 in accordance with the dilution ratio used by Yamazaki et al., see Japan J. Pharmacol., 55, 415-424 (1991). Otherwise, the experiment was performed as described under test 2.1., however, in addition to the erosion index calculated from the lengths of the erosions in mm, the ratio of occurence of animals showing at least one gastric erosion within a test group, i.e. the erosion frequency, was also evaluated.

[3] abbreviates: rat, 60 min pretreatment, absolute ethanol 1 ml/animal, erosion index.
[4] abbreviates: erosion frequency, read-out: Inhibition of the erosion frequency, ED50 p.o.
Setting [5] is: erosion index, read-out: Inhibition of the erosion index, ED50 p.o.

Like-named read-outs stand apart in the source and are kept apart here.

In general, ED50 refers to the dose at which the effect has come halfway, by size or by number of responders.

As for `COc1ccccc1/C=C1\CCCC\C1=N/OCC(O)CN1CCN(c2ccccc2OC)CC1` (racemic) [Compound H, (R,S)-2-(E)-(2-methoxyphenylmethylene)-1-(E)-{3-[4-(2-methoxyphenyl)-1-piperazinyl]-2-hydroxypropoxyimino}cyclohexane], the “Relative activity related to the inhibition of the free acid” value in assay [1] is on record as “higher than 20.0”. The ED50 in assay [1] (setting [3]) is 9.5 mg/kg; in assay [2] (setting [4]) it was above 60 mg/kg; in assay [2] (setting [5]) it was 30 to 60 mg/kg. Further, the “Inhibition of the erosion index, relative activity” value in assay [2] (erosion index) is reported as 0.4-0.7. In addition, the “Inhibition of the erosion frequency, relative activity” value in assay [2] (erosion frequency) is reported as below 3.

`C=CCNCC(O)CO/N=C1\CCCC\C1=C/c1ccc(Cl)cc1` (racemic) [Compound I, (R,S)-2-(E)-(4-chlorophenylmethylene)-1-(E)-[(3-propenylamino-2-hydroxypropoxy)imino]cyclohexane]: in assay [1], the “Relative activity related to the inhibition of the free acid” value was “higher than 10.0”. Further, the figures for the ED50 in assay [1] (setting [3]), in assay [2] (setting [4]) and in assay [2] (setting [5]) were 8.4 mg/kg, 39.2 mg/kg and 8.6 mg/kg, respectively. For the same molecule, the “Inhibition of the erosion index, relative activity” value in assay [2] (erosion index) was 2.6. In addition, the “Inhibition of the erosion frequency, relative activity” value in assay [2] (erosion frequency) worked out at 4.8.

For `CC(C)N(CC(O)CO/N=C1\CCCC\C1=C/c1ccc(Cl)cc1)C(C)C` (racemic) [Compound J, (R,S)-2-(E)-(4-chlorophenylmethylene)-1-(E)-[(3-diisopropylamino-2-hydroxypropoxy)imino]cyclohexane], the “Relative activity related to the inhibition of the free acid” value in assay [1] is given as “about 25.0”. For the same molecule, the figures for the ED50 in assay [1] (setting [3]), in assay [2] (setting [4]) and in assay [2] (setting [5]) were 7 mg/kg, 19.1 mg/kg and 5.9 mg/kg, respectively. The “Inhibition of the erosion index, relative activity” value in assay [2] (erosion index) came to 3.7. Further, the “Inhibition of the erosion frequency, relative activity” value in assay [2] (erosion frequency) is recorded as 9.9.

On to `CC(C)NCC(O)CO/N=C1\CCCC\C1=C/c1ccc(Br)cc1` (racemic) [Compound K], for which the “Relative activity related to the inhibition of the free acid” value in assay [1] is reported as “about 17.9”. For the same molecule, the ED50 is 6.7 mg/kg in assay [1] (setting [3]), 15 to 30 mg/kg in assay [2] (setting [4]) and 11.4 mg/kg in assay [2] (setting [5]). In assay [2] (erosion index), the “Inhibition of the erosion index, relative activity” value came out at 1.9. The “Inhibition of the erosion frequency, relative activity” value in assay [2] (erosion frequency) is recorded as 6-12.

`CN(C)CCCNCC(O)CO/N=C1\CCCC\C1=C/c1ccccc1` (racemic) [Compound M, (R,S)-2-(E)-(phenylmethylene)-1-(E)-{[3-(3-dimethylamino-1-propylamino)-2-hydroxypropoxy]imino}cyclohexane]: in assay [1], the “Relative activity related to the inhibition of the free acid” value is recorded as “about 6.7”. The results for the ED50 in assay [1] (setting [3]), in assay [2] (setting [4]) and in assay [2] (setting [5]) were 29.9 mg/kg, 30 to 60 mg/kg and 17.5 mg/kg, respectively. Further, in assay [2] (erosion index), the “Inhibition of the erosion index, relative activity” value is given as 1.3. Moreover, the “Inhibition of the erosion frequency, relative activity” value in assay [2] (erosion frequency) was 3-6.

For `CNC(=NC#N)NCCSCc1nc[nH]c1C` [cimetidine, 2-cyano-1-methyl-3-[2-[[(5-methyl-4-imidazolyl)-methyl]thio]ethyl]guanidine, reference compound], the “gastroprotective activity (in words)” value in assay [1] is given as “low gastroprotective action in a rather high dose”.

As for `CN1CCN(CC(=O)N2c3ccccc3C(=O)Nc3cccnc32)CC1` [pirenzepine, reference compound], the “gastroprotective activity (in words)” value in assay [1] is given as “low gastroprotective action in a rather high dose”.

As for “beta-D-fructofuranosyl alpha-D-glucopyranoside hydrogen sulfate basic aluminium salt [sucralfate, reference compound]”, the “Gastroprotective activity: test with absolute ethanol, ED50 p.o.” value in assay [1] (rat, p.o., 60 min pretreatment, absolute ethanol 1 ml/animal, erosion index) turned out to be 69.0 mg/kg. In addition, the “gastroprotective activity (in words)” value in assay [1] is listed as “nearly identical activity”.
